In patent US20100197581A1, “NATIVE GP41 ASSAY” (priority 2007, published 2010):
Like-named read-outs stand apart in the source and are kept apart here.

Tests used:
[1] = target: T1, gp41 (HR1 region) in native HIV-1 envelope spikes on HUTIIIB cells (Human immunodeficiency virus type 1 group M subtype B, UniProt P04578, V708A); assay type: binding, HIV-1 IIIB
[2] = target: T1, gp41 (HR1 region) in native HIV-1 envelope spikes on HUTIIIB cells; settings: for activity in native gp41 assay (words, Table 4 results): reference compounds, flow cytometric- and HCS-based assay
Method: A serial dilution of test compounds, dissolved in DMSO, were diluted in culture medium (RPMI1640 with Ultraglutamin and Hepes w/o phenol red with 10% bovine calf serum (HyClone) and 20 μg/l gentamycin) with a final DMSO concentration of 1% and added to 384 well Cell Carrier plates (Evotec Technologies). Hut-IIIB cells (15000 cells/well) were added to these test plates and incubated for 30 min at room temperature. […] Finally, a solution of DRAQ 5 in PBS (final concentration of 5 μM) was added to the wells. After incubating the plates for 30′ at room temperature, the test plates were measured using the Opera™ confocal microscope high content screening platform (Evotec Technologies). After every addition, mixing of the well content was achieved by placing the 384w plates on a 384w shaker (MixMate, Eppendorf) for 5 seconds at 2000 rpm.
Image acquisition was performed using a 40× water immersion objective and simultaneous excitation of FITC and Draq5 fluorescence with a 488 and a 635 laser. […] Output parameters of the script included among others “mean (number of spots per cell)” and “mean (integrated spot signal)”. […] Furthermore, potential false positive results due to fluorescence or false negative results due to quenching can be assessed by comparing the inhibition curves generated by the two above mentioned output parameters.

[3] = small molecules, specificity experiments, flow cytometry, read-out: Native gp41 EC50
[4] = optimized protocol, […] C34-FITC, 75000 cells/well, compound added before sCD4, 3 independent experiments, read-out: EC50 flow cytometry

Q: For O=C(O)C1=CC(=C(c2ccc(O)c(C(=O)O)c2)c2ccc(O)c(C(=O)O)c2)C=CC1=O [ATA], which “inhibition of C34-FITC binding” value ([1]; small molecules, specificity experiments) is on record?
A: Its value is “about 40%”.

Q: And the EC50 [1, 3]?
A: The EC50 was greater than 200 µM.

Q: Which EC50 [1, 3] does the source give for Cc1cn([C@H]2C[C@H](N=[N+]=[N-])[C@@H](CO)O2)c(=O)[nH]c1=O [AZT] here?
A: The EC50 was greater than 200 µM.

Q: How did the EC50 [1, 4] turn out when COc1ccnc2[nH]cc(C(=O)C(=O)N3CCN(C(=O)c4ccccc4)C[C@H]3C)c12 [BMS-806] was run?
A: Its EC50 is 0.013 µM.

Q: And the EC50 [1, 3]?
A: Its EC50 is greater than 200 µM.

Q: And the “difference between addition of compound before, after or together with sCD4 induction” value ([1]; three orders of addition, FIG. 1)?
A: Its value is “large increase of sensitivity when the compound was added before or together with sCD4”.

Q: What about the EC50 ([2]; read-out: EC50 HCS, mean number of spots per cell, 0.5 nM C34-FITC, compound added before sCD4, 3 independent experiments) of the same compound?
A: Its EC50 is 0.0043 µM.

Q: And the “activity in native gp41 assay (words, Table 4 results)” value [2]?
A: Its value is “active”.

Q: O=C1Nc2ccc(Cl)cc2[C@@](C#CC2CC2)(C(F)(F)F)O1 [EFV] was tested. Which EC50 [1, 4] did it give?
A: Its EC50 is greater than 200 µM.

Q: What about the EC50 [1, 3] of the same compound?
A: Its EC50 is greater than 200 µM.

Q: What about the “cytotoxicity in HCS native gp41 assay” value ([2]; Hut-IIIB cells, 200 μM) of the same compound?
A: Its value is “cytotoxicity”.

Q: And the “activity in native gp41 assay (words, Table 4 results)” value [2]?
A: The value was “no activity”.

Q: O=C(NCc1ccc(F)cc1)c1nc(N2CCCCS2(=O)=O)c2cccnc2c1O [L870,810] was tested. Which EC50 [1, 3] did it give?
A: Its EC50 is greater than 200 µM.

Q: Which EC50 [1, 3] does the source give for CC(C)(C)NC(=O)[C@@H]1C[C@@H]2CCCC[C@@H]2CN1C[C@@H](O)[C@H](Cc1ccccc1)NC(=O)[C@H](CC(N)=O)NC(=O)c1ccc2ccccc2n1 [SQV] here?
A: Its EC50 is greater than 200 µM.
